This experiment can be described thus: Rate of conversion of cyanohydrin to aldehyde as a function of pH. It counts as physicochemical. To be noted: pH 8.0 or greater, tris-maleate 0.1 M, 25° C. Here is the method:
This example illustrates the rate of conversion of a cyanohydrin formed in the practice of this invention to its corresponding aldehyde. The cyanohydrin used in this example is hydroxy-(6-methoxynaphthalen-2-yl) acetonitrile, which is the cyanohydrin formed by the action of an esterase on the substrate of Example 1.
The rate of cyanohydrin-to-aldehyde conversion was determined as a function of pH at constant ionic strength (0.1 M) and temperature (25° C.), using a series of tris-maleate buffers with different pH values ranging from 6.0 to 9.0 at intervals of 0.5. Conversion was initiated by the addition of 3 μL of 10 mM of cyanohydrin, and the formation of 6-methoxy-2-naphthaldehyde, measured in pmol cyanohydrin converted per second per mL, was detected by fluorescence excitation at 330 nm and emission at 460 nm over a time period of 20 minutes. […] The rate of aldehyde conversion increases rapidly at pH 8.0 or greater with maximum fluorescence achieved in less than 20 seconds.

As for `COc1ccc2cc(C(O)C#N)ccc2c1` (stereo not shown) [cyanohydrin, hydroxy-(6-methoxynaphthalen-2-yl) acetonitrile], the “time to maximum fluorescence (cyanohydrin-to-aldehyde conversion)” value is listed as “less than 20 seconds”.
